# Data: patent US20130005696A1, “BUFADIENOLIDE DERIVATIVES, PREPARING PROCESS THEREOF, COMPOSITION COMPRISING THE SAME AND THE USE THEREOF” (priority 2011, published 2013)
# Test system: human hepatic carcinoma HepG2 xenograft
# Test: Therapeutic effect against HepG2 xenograft in nude mice
# Type: in vivo, Balb/c nude mice
# Details: 8 mg/kg iv, QW × 14 d
# Experimental: This experiment is to investigate the in vivo inhibitory effect of II1E-01.HCl on growth of human-derived hepatic carcinoma HepG2 cell, human-derived breast carcinoma MDA-MB-231 cell, human-derived lung carcinoma H460 cell, human-derived colon carcinoma HCT-116 cell, human-derived […] MV-4-11 cell xenografts in nude mice.
# Formulation of solvent control (5% anhydrous ethanol & 5% aqueous glucose solution): 2.5 mL anhydrous ethanol was added into a 50 mL tube, followed by addition of 47.5 mL 5% glucose solution for injection followed by shaking, and stored at room temperature before use.
# Formulation of the preparations of the compounds to be tested: formulations with concentrations of 0.4 mg/mL and 0.6 mg/mL were prepared respectively. An appropriate amount of II1E-01.HCl was weighted and put into a 50 mL tube, followed by addition of corresponding volume of solvent to get the desired concentration and mixed using a vortex mixer. After the solid was dissolved completely, the solution was subpackaged into 4 mL vials and stored at refrigerated condition (2-8° C.) until use.
# Experimental animals: Balb/c nude mice (male, six weeks old).
# HepG2 cells were in vitro cultured to be proliferated. The cells in the log phase of growth were collected and resuspended in DMEM serum-free medium, and then implanted subcutaneously into the axilla of the right forelimb of nude mice. After 11 days, the tumor size reached about 250 mm^3. The mice bearing the tumor were grouped according to the tumor size into 6 groups, including the group of solvent control, groups of positive controls (Rapamycin 10 mg/kg and Vinorelbine 8 mg/kg), and groups of low (2 mg/kg), middle (4 mg/kg) and high (6 mg/kg) dosages of the testing compound II1E-01.HCl. Each group was administered intravenously at tail. In the solvent control group, the solvent control solution was administered intravenously once every other day (QOD). In the low, middle and high dosage groups of II1E-01.HCl, II1E-01.HCl was administered intravenously once every other day (QOD). In the positive control groups, Rapamycin 10 mg/kg and Vinorelbine 8 mg/kg were administered once a week (QW). The animals were given the drugs for two weeks. In the two week time period, the growth of tumor and the body weight of the mice were observed.
# Two weeks after administering (the 25th day after the implantation), the tumor weight and inhibition rate were calculated, and results are listed in Table 5.
row,Compound,Tumor Weight(g) Mean ± SE [g]
1,"CCC1=C[C@@H]2CN(C1)Cc1c([nH]c3ccccc13)[C@@](C(=O)OC)(c1cc3c(cc1OC)N(C)[C@H]1[C@@](O)(C(=O)OC)[C@H](OC(C)=O)[C@]4(CC)C=CCN5CC[C@]31[C@@H]54)C2 [Vinorelbine, reference compound]",0.4719 ± 0.0660

# Same assay, conditions: 8 mg/kg iv, QW × 14 d, 8 mg/kg
row,Compound,Inhibition Rate (%)
1,"CCC1=C[C@@H]2CN(C1)Cc1c([nH]c3ccccc13)[C@@](C(=O)OC)(c1cc3c(cc1OC)N(C)[C@H]1[C@@](O)(C(=O)OC)[C@H](OC(C)=O)[C@]4(CC)C=CCN5CC[C@]31[C@@H]54)C2 [Vinorelbine, reference compound]",38.36

# Test system: human non-small cell lung carcinoma A549 xenograft
# Test: In vivo therapeutic effect against A549 xenograft in nude mice
# Details: A549 xenograft in nude mice; bufalin at 1.6 mg/kg
# Experimental: This experiment is to evaluate the in vivo therapeutic effects of compounds bufalin, II1D-06.HCl, II1E-01.HCl and II1B-02.HCl against human-derived lung carcinoma A549 cell xenograft in nude mice.
# Solvent control: 4% DMSO & 2% Tween-80 & 5% PEG-400 solution in normal saline
# Compounds to be tested: bufalin, II1B-02.HCl, II1E-01.HCl, II1D-06.HCl
# Formulating method: the compound was dissolved with DMSO into a stock solution, which was then diluted into an injection with a final DMSO concentration of 4%.
# Positive control: Rapamycin Formulating method: it was formulated into an injection with a final DMSO concentration of 4%.
# After the tumor size reaches about 200 mm^3, the mice bearing the tumor were grouped randomly into 8 groups according to the tumor size, including the groups of solvent control, positive control rapamycin 5 mg/kg, II1E-01.HCl 2 mg/kg, II1E-01.HCl 4 mg/kg, II1E-01.HCl 6 mg/kg, II1B-02.HCl 4 mg/kg, II1D-06.HCl 4 mg/kg, bufalin 1.6 mg/kg, wherein the dosage selection is based on that the maximum tolerable dosage is 1.6 mg/kg for bufalin and 6 mg/kg for II1E-01.HCl. Rapamycin was administered intravenously once a week (QW) and the other groups were administered intraperitoneally once every other day (QOD). The tumor was weighted after 21 days to calculate the inhibition rate. The equation for calculating inhibition rate (IR) is IR=(WC−WT)/WC×100%, wherein, WC represents the tumor weight of the control group, and WT represents the tumor weight of the treating group.
row,Compound,"inhibition of growth of human lung carcinoma A549 xenograft, in words"
1,CCN(CC)CCNC(=O)O[C@H]1CC[C@@]2(C)[C@H](CC[C@@H]3[C@@H]2CC[C@]2(C)[C@@H](c4ccc(=O)oc4)CC[C@]32O)C1.Cl [II1B-02•HCl],significantly inhibit the growth

# Same assay, conditions: A549 xenograft, 4 mg/kg ip QOD, after 21 days
Compound,Inhibition Rate (%),Tumor Weight(g) Mean ± SE [g]
C[C@]12CC[C@H](OC(=O)N3CCCNCC3)C[C@H]1CC[C@@H]1[C@@H]2CC[C@]2(C)[C@@H](c3ccc(=O)oc3)CC[C@]12O.Cl [II1D-06•HCl],37.15,1.0580 ± 0.0866
CCN(CC)CCNC(=O)O[C@H]1CC[C@@]2(C)[C@H](CC[C@@H]3[C@@H]2CC[C@]2(C)[C@@H](c4ccc(=O)oc4)CC[C@]32O)C1.Cl [II1B-02•HCl],58.34,0.7013 ± 0.0707

# Test system: HeLa human cervical carcinoma cell line
# Test: In vitro antitumor activity assay (SRB), HeLa
# Type: cell-based
# Details: Table 1, read-out: IC50, inhibitory activity on cell proliferation of HeLa cell line
# Text: HeLa human cervical carcinoma cell line, A-549 human non-small cell lung carcinoma cell line, NCI-H2228 human lung carcinoma cell line, NCI-H460 human lung carcinoma cell line, MDA-MB-231 human breast carcinoma cell line, MCF-7 human breast carcinoma cell line, Bel-7402 human hepatic carcinoma cell line, Hep3B human hepatic carcinoma cell line, QGY-7703 human hepatic carcinoma cell line, MV-4-11 human leukemic cell line, DAUDI human leukemic cell line, Jurkat human leukemic cell line, A498 renal carcinoma cell line, LoVo human colon carcinoma cell line, HCT1116 human colon carcinoma cell line, A431 human skin carcinoma cell line, PANC-1 human pancreatic carcinoma cell line, U87-MG human brain carcinoma cell line, SH-SY5Y human brain carcinoma cell line, RPMI-8226 human bone carcinoma cell line, HT1080 human fibrosarcoma cell line, PC-3 human prostatic carcinoma cell line, AGS human gastric adenocarcinoma cell line, and BGC-823 human gastric adenocarcinoma cell line were purchased from the Cell Bank of the Chinese Academy of Sciences.
# The positive control is bufalin (formulated according to the common method), its purity is 98% or more by HPLC-UV and its structure is identified by NMR. The compounds to be tested and the positive control were diluted with normal saline with a concentration gradient of 10^−4 M, 10^−5 M, 10^−6 M, 10^−7 M and 10^−8 M.
# According to cell growth rate, tumor cells in the log phase of growth were seeded into 96-well culture plates at 100 μL per well, and allowed to attach for 24 hours, followed by addition of a test compound or positive control at 10 μL per well. For each concentration, the test was carried out in triplicate wells. Solvent control wells with addition of normal saline into cell culture and a blank well containing only cell culture medium but without cells for zeroing were also included. The tumor cells were incubated for 72 hours at 37° C. under 5% CO2, and then the culture medium (RPMI-1640) was removed. The cells were fixed with 10% cool TCA by incubating for 1 h at 4° C., washed with distilled water for 5 times, and dried naturally in the air. A solution of SRB (Sigma) (4 mg/mL) in 1% glacial acetic acid was added at 100 μL per well, and the cells were stained for 15 minutes at room temperature, and the supernatant was discarded. The plates were washed for 5 times with 1% acetic acid, and dried in air. Finally, Tris solution was added at 150 μL per well, and the absorbance (A) was measured at a wavelength of 515 nm using a microplate reader. The growth inhibition on tumor cell proliferation was calculated according to the following equation:
# Growth Inhibition (%)=[(Absorbance of negative control−Absorbance of blank)−(Absorbance of sample−Absorbance of blank)]/(Absorbance of negative control−Absorbance of blank)×100%
# Drug concentration: 10 μM, 1 μM, 0.1 μM, 10 nM, 1 nM, 0.1 nM.
# IC50 was fitted by GraphPad Prism 4.
row,Compound,IC50 [nM]
1,C[C@]12CC[C@H](NC(=O)N3CCNCC3)C[C@H]1CC[C@@H]1[C@@H]2CC[C@]2(C)[C@@H](c3ccc(=O)oc3)CC[C@]12O [III1D-02],5.68

# Same assay, conditions: read-out: IC50, inhibitory activity on cell proliferation of HeLa cell line
row,Compound,IC50 [nM]
1,C[C@]12CC[C@H](OC(=O)N3CCC(NCCO)CC3)C[C@H]1CC[C@@H]1[C@@H]2CC[C@]2(C)[C@@H](c3ccc(=O)oc3)CC[C@]12O [II1D-24],7.3
2,CN(C)CCNC(=O)O[C@H]1CC[C@@]2(C)[C@H](CC[C@@H]3[C@@H]2CC[C@]2(C)[C@@H](c4ccc(=O)oc4)CC[C@]32O)C1 [II1B-01],1.79
3,CNC1CCN(C(=O)O[C@H]2CC[C@@]3(C)[C@H](CC[C@@H]4[C@@H]3CC[C@]3(C)[C@@H](c5ccc(=O)oc5)CC[C@]43O)C2)CC1 [II1D-22],7.34
4,C[C@]12CC[C@H](OC(=O)N3CCN(C(=O)c4ccccc4)CC3)C[C@H]1CC[C@@H]1[C@@H]2CC[C@]2(C)[C@@H](c3ccc(=O)oc3)CC[C@]12O [II1D-16],44.6
5,C[C@]12CC[C@H](OC(=O)N3CCC(O)CC3)C[C@H]1CC[C@@H]1[C@@H]2CC[C@]2(C)[C@@H](c3ccc(=O)oc3)CC[C@]12O [II1D-04],38
6,C[C@]12CC[C@H](NC(=O)N3CCCNCC3)C[C@H]1CC[C@@H]1[C@@H]2CC[C@]2(C)[C@@H](c3ccc(=O)oc3)CC[C@]12O [III1D-04],3.98
7,CNCCCN(C)C(=O)O[C@H]1CC[C@@]2(C)[C@H](CC[C@@H]3[C@@H]2CC[C@]2(C)[C@@H](c4ccc(=O)oc4)CC[C@]32O)C1 [II1B-07],1.15
8,COC(=O)c1ccccc1S(=O)(=O)N1CCN(C(=O)O[C@H]2CC[C@@]3(C)[C@H](CC[C@@H]4[C@@H]3CC[C@]3(C)[C@@H](c5ccc(=O)oc5)CC[C@]43O)C2)CC1 [II1D-12],41.8
9,CN1CCN(C(=O)O[C@H]2CC[C@@]3(C)[C@H](CC[C@@H]4[C@@H]3CC[C@]3(C)[C@@H](c5ccc(=O)oc5)CC[C@]43O)C2)CC1 [II1D-03],3.49
10,C[C@]12CC[C@H](OC(=O)NCCCN)C[C@H]1CC[C@@H]1[C@@H]2CC[C@]2(C)[C@@H](c3ccc(=O)oc3)CC[C@]12O [II1B-10],1.82
11,C[C@]12CC[C@H](OC(=O)N3CCNC3)C[C@H]1CC[C@@H]1[C@@H]2CC[C@]2(C)[C@@H](c3ccc(=O)oc3)CC[C@]12O [II1D-19],5.8
12,C[C@]12CC[C@H](OC(=O)NCCN)C[C@H]1CC[C@@H]1[C@@H]2CC[C@]2(C)[C@@H](c3ccc(=O)oc3)CC[C@]12O [II1B-09],5.72
13,C[C@]12CC[C@H](NC(=O)NCC3CCCCN3)C[C@H]1CC[C@@H]1[C@@H]2CC[C@]2(C)[C@@H](c3ccc(=O)oc3)CC[C@]12O (stereo partly shown) [III1E-02],8.68
14,CC(=O)N1CCN(C(=O)O[C@H]2CC[C@@]3(C)[C@H](CC[C@@H]4[C@@H]3CC[C@]3(C)[C@@H](c5ccc(=O)oc5)CC[C@]43O)C2)CC1 [II1D-14],23.1
15,C[C@]12CC[C@H](OC(=O)N3CCN(S(C)(=O)=O)CC3)C[C@H]1CC[C@@H]1[C@@H]2CC[C@]2(C)[C@@H](c3ccc(=O)oc3)CC[C@]12O [II1D-10],16.3
16,CCN(CCN(C)C)C(=O)O[C@H]1CC[C@@]2(C)[C@H](CC[C@@H]3[C@@H]2CC[C@]2(C)[C@@H](c4ccc(=O)oc4)CC[C@]32O)C1 [II1B-04],2.17
17,CCNC1CCN(C(=O)O[C@H]2CC[C@@]3(C)[C@H](CC[C@@H]4[C@@H]3CC[C@]3(C)[C@@H](c5ccc(=O)oc5)CC[C@]43O)C2)CC1 [II1D-23],1.12
18,CCNCCN(CC)C(=O)O[C@H]1CC[C@@]2(C)[C@H](CC[C@@H]3[C@@H]2CC[C@]2(C)[C@@H](c4ccc(=O)oc4)CC[C@]32O)C1 [II1B-06],1.11
19,C[C@]12CC[C@H](NC(=O)NC3CCNCC3)C[C@H]1CC[C@@H]1[C@@H]2CC[C@]2(C)[C@@H](c3ccc(=O)oc3)CC[C@]12O [III1E-01],7.2
20,CN(C)C1CCN(C(=O)O[C@H]2CC[C@@]3(C)[C@H](CC[C@@H]4[C@@H]3CC[C@]3(C)[C@@H](c5ccc(=O)oc5)CC[C@]43O)C2)CC1 [II1D-25],5.44
21,CN1CCN(C(=O)N[C@H]2CC[C@@]3(C)[C@H](CC[C@@H]4[C@@H]3CC[C@]3(C)[C@@H](c5ccc(=O)oc5)CC[C@]43O)C2)CC1 [III1D-03],41.6
22,C[C@]12CC[C@H](OC(=O)NCC3CCNCC3)C[C@H]1CC[C@@H]1[C@@H]2CC[C@]2(C)[C@@H](c3ccc(=O)oc3)CC[C@]12O [II1E-02],4.31
23,CCOC(=O)CCNC(=O)N1CCN(C(=O)O[C@H]2CC[C@@]3(C)[C@H](CC[C@@H]4[C@@H]3CC[C@]3(C)[C@@H](c5ccc(=O)oc5)CC[C@]43O)C2)CC1 [II1D-07],2.6
